The values that follow come from ChEMBL document CHEMBL1681651, “A broad spectrum anticancer nucleoside with selective toxicity against human colon cells in vitro” (2011).

Several values for one entry are separate records, joined by “and”; a condition that tells them apart may be missing. Identical values can stand only once.

Assay type in all cases: functional
One assay deals with SW-620. Description: Growth inhibition of human SW620 cells assessed as cell growth at 10 uM after 48 hrs by SRB assay. The settings on record: SW-620, 48 h, read-out: Activity. For orientation: The SRB assay estimates cell density from bound dye.
The subject of another assay is MDA-MB-468. Nature of the assay: Growth inhibition of human MDA-MB-468 cells assessed as cell growth at 10 uM after 48 hrs by SRB assay. The settings on record: MDA-MB-468, 48 h, read-out: Activity.
Another assay relates to M14. Nature of the assay: Growth inhibition of human M14 cells assessed as cell growth at 0.1 uM after 48 hrs by SRB assay. The settings on record: M14, 48 h, read-out: Activity.
In assay [1] the test system is PC-3. Nature of the assay: Growth inhibition of human PC3 cells assessed as cell growth at 0.1 uM after 48 hrs by SRB assay. The settings on record: PC-3, 48 h, read-out: Activity.
In assay [2] the test system is MDA-MB-231. Nature of the assay: Growth inhibition of human MDA-MB-231 cells assessed as cell growth at 1 mM after 48 hrs by SRB assay. The settings on record: MDA-MB-231, 48 h, read-out: Activity.
In assay [3] the test system is MDA-MB-231. Nature of the assay: Growth inhibition of human MDA-MB-231 cells assessed as cell growth at 100 uM after 48 hrs by SRB assay. Particulars: MDA-MB-231, 48 h, read-out: Activity.
Assay [4] relates to PC-3. Description: Growth inhibition of human PC3 cells assessed as cell growth at 1 uM after 48 hrs by SRB assay. The settings on record: PC-3, 48 h, read-out: Activity.
The next assay concerns HCT-116. Description: Growth inhibition of human HCT116 cells assessed as cell growth at 100 uM after 48 hrs by SRB assay. Particulars: HCT-116, 48 h, read-out: Activity.
The subject of a further assay is IGROV-1. Nature of the assay: Growth inhibition of human IGROV1 cells assessed as cell growth at 1 mM after 48 hrs by SRB assay. The settings on record: IGROV-1, 48 h, read-out: Activity.
The next assay concerns MCF7. Nature of the assay: Growth inhibition of human MCF7 cells assessed as cell growth at 1 mM after 48 hrs by SRB assay. On the set-up: Activity: scale not given: the % may be the effect or the level left.
In assay [5] the test system is PC-3. Nature of the assay: Growth inhibition of human PC3 cells assessed as cell growth at 1 mM after 48 hrs by SRB assay. Particulars: PC-3, 48 h, read-out: Activity.

Regarding `CNC(=O)OC[C@H]1O[C@@H](n2cnc3c(NC(=O)Nc4ccccc4)ncnc32)[C@H](O[Si](C)(C)C(C)(C)C)[C@@H]1O[Si](C)(C)C(C)(C)C`, the growth at 10 µM worked out at 98% in the assay with SW-620 and 104% with MDA-MB-468.
For `CNC(=O)NC[C@H]1O[C@@H](n2cnc3c(NC(=O)Nc4ccccc4)ncnc32)[C@H](O[Si](C)(C)C(C)(C)C)[C@@H]1O[Si](C)(C)C(C)(C)C`, the growth at 0.1 µM came out at 101% in the assay on M14 and 93% in the assay on PC-3 [1]. Moreover, the values for the growth at 1000 µM with MDA-MB-231 [2], in the assay with IGROV-1 and with PC-3 [5] were -76%, -39% and 4%, respectively. Also, the results for the growth at 100 µM with MDA-MB-231 [3] and with HCT-116 were -29% and -59%, respectively. The growth at 10 µM with MDA-MB-468 turned out to be 99%. For the same molecule, the growth at 1 µM in the assay with PC-3 [4] was 91%. Moreover, the Activity in the assay with MCF7 was -21% and -16%.
